Test results from US20250145633A1, “SUBSTITUTED FURANOPYRIMIDINE COMPOUNDS AS PDE1 INHIBITORS” (Dart NeuroScience, LLC, priority 2017, published 2025).

Molecular target: human PDE1B enzyme (Homo sapiens (Human), UniProt Q01064)
Test: IMAP TR-FRET PDE1B enzymatic assay
Type: biochemical
Details: negative log of half-maximal molar inhibitory concentration, 200 nM FAM-cAMP, values given as bins; for IC50: read-out: PDE1b (pIC50) (converted)
Procedure, shortened: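 Full-length GST-tagged human PDE1B (250 pg/well) in IMAP BSA buffer with 10 U/ml calmodulin and 2.5 mM CaCl2; compound pre-incubated 5 min at room temperature, then 200 nM (final) FAM-cAMP for 30 min. IMAP binding reagent/Tb added, 1 h; TR-FRET 520/490 ratio read. IC50 from sigmoidal dose-response fit.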

| SMILES | IC50 | PDE1b (pIC50) |
| --- | --- | --- |
| COc1ccc(CC2(NC(=O)c3c(C)oc4ncnc(NC5(C)CC5)c34)CC2)cc1 [Example 371, N-{1-[(4-Methoxyphenyl)methyl]cyclopropyl}-6-methyl-4-[(1-methylcyclopropyl)amino]furo[2,3-d]pyrimidine-5-carboxamide] | 10 to 100 nM |  |
| Cc1oc2ncnc(NC3(C)CC3)c2c1C(=O)N1CCC(c2cccc(Br)n2)C1 (stereo not drawn) [Example 372, 5-[3-(6-Bromopyridin-2-yl)pyrrolidine-1-carbonyl]-6-methyl-N-(1-methylcyclopropyl)furo[2,3-d]pyrimidin-4-amine] |  | >8 |
| Cc1oc2ncnc(NC3(C)CC3)c2c1C(=O)N1CCC(c2ccc(Br)cn2)C1 (stereo not drawn) [Example 373, 5-[3-(5-Bromopyridin-2-yl)pyrrolidine-1-carbonyl]-6-methyl-N-(1-methylcyclopropyl)furo[2,3-d]pyrimidin-4-amine] |  | >8 |
| Cc1oc2ncnc(NC3(C)CC3)c2c1C(=O)NC(C)(C)CF [Example 374, N-(1-Fluoro-2-methylpropan-2-yl)-6-methyl-4-[(1-methylcyclopropyl)amino]furo[2,3-d]pyrimidine-5-carboxamide] | 10 to 100 nM |  |
| Cc1oc2ncnc(NC3(C)CC3)c2c1C(=O)N1CCCC2(C1)C(=O)Nc1ccccc12 (stereo not drawn) [Example 375, 1′-{6-Methyl-4-[(1-methylcyclopropyl)amino]furo[2,3-d]pyrimidine-5-carbonyl}-1,2-dihydrospiro[indole-3,3′-piperidine]-2-one] | 100 to 1000 nM |  |
| Cc1oc2ncnc(NC3(C)CC3)c2c1C(=O)N1CCCC2(C1)C(=O)N(C)c1ccccc12 (stereo not drawn) [Example 376, 1-Methyl-1′-{6-methyl-4-[(1-methylcyclopropyl)amino]furo[2,3-d]pyrimidine-5-carbonyl}-1,2-dihydrospiro[indole-3,3′-piperidine]-2-one] | 100 to 1000 nM |  |
| Cc1oc2ncnc(NC3(C)CC3)c2c1C(=O)N1CC(C#N)C2(C1)C(=O)Nc1ccccc12 (stereo not drawn) [Example 377, 1′-{6-Methyl-4-[(1-methylcyclopropyl)amino]furo[2,3-d]pyrimidine-5-carbonyl}-2-oxo-1,2-dihydrospiro[indole-3,3′-pyrrolidine]-4′-carbonitrile] | 10 to 100 nM |  |
| Cc1oc2ncnc(NC3(C)CC3)c2c1C(=O)N1CCOC2(CCc3ccccc32)C1 (stereo not drawn) [Example 378, 5-({2,3-Dihydrospiro[indene-1,2′-morpholine]-4′-yl}carbonyl)-6-methyl-N-(1-methylcyclopropyl)furo[2,3-d]pyrimidin-4-amine] | 100 to 1000 nM |  |
| Cc1oc2ncnc(NC3(C)CC3)c2c1C(=O)N1CCCC2(C1)OCc1ccccc12 (stereo not drawn) [Example 379, 6-Methyl-N-(1-methylcyclopropyl)-5-({3H-spiro[2-benzofuran-1,3′-piperidine]-1′-yl}carbonyl)furo[2,3-d]pyrimidin-4-amine] | 100 to 1000 nM |  |
| Cc1oc2ncnc(NC3(C)CC3)c2c1C(=O)N1CCC2(C1)OCc1ccccc12 (stereo not drawn) [Example 380, 6-Methyl-N-(1-methylcyclopropyl)-5-(f{3H-spiro[2-benzofuran-1,3′-pyrrolidine]-1′-yl}carbonyl)furo[2,3-d]pyrimidin-4-amine] | 10 to 100 nM |  |
| Cc1oc2ncnc(NC3(C)CC3)c2c1C(=O)N1CCN(c2cncnc2)CC1 [Example 381, 6-Methyl-N-(1-methylcyclopropyl)-5-[4-(pyrimidin-5-yl)piperazine-1-carbonyl]furo[2,3-d]pyrimidin-4-amine] | 10 to 100 nM |  |
| Cc1oc2ncnc(NC3(C)CC3)c2c1C(=O)N1CCC(c2ccc(C(N)=O)cc2)CC1 [Example 382, 4-(1-{6-Methyl-4-[(1-methylcyclopropyl)amino]furo[2,3-d]pyrimidine-5-carbonyl}piperidin-4-yl)benzamide] |  | >8 |
| Cc1ccc(C2CCN(C(=O)c3c(C)oc4ncnc(NC5(C)CC5)c34)CC2)cn1 [Example 383, 6-Methyl-N-(1-methylcyclopropyl)-5-[4-(6-methylpyridin-3-yl)piperidine-1-carbonyl]furo[2,3-d]pyrimidin-4-amine] | 10 to 100 nM |  |
| Cc1ccc(C2CCN(C(=O)c3c(C)oc4ncnc(NC5(C)CC5)c34)CC2)cc1 [Example 384, 6-Methyl-N-(1-methylcyclopropyl)-5-[4-(4-methylphenyl)piperidine-1-carbonyl]furo[2,3-d]pyrimidin-4-amine] |  | >8 |
| Cc1oc2ncnc(NC3(C)CC3)c2c1C(=O)N1CCC(c2ccc(C#N)cc2)CC1 [Example 385, 4-(1-{6-Methyl-4-[(1-methylcyclopropyl)amino]furo[2,3-d]pyrimidine-5-carbonyl}piperidin-4-yl)benzonitrile] |  | >8 |
| Cc1oc2ncnc(NC3(C)CC3)c2c1C(=O)N1CCC2(CC1)OC(=O)Nc1ccc(F)cc12 [Example 386, 6-Fluoro-1′-{6-methyl-4-[(1-methylcyclopropyl)amino]furo[2,3-d]pyrimidine-5-carbonyl}-1,2-dihydrospiro[3,1-benzoxazine-4,4′-piperidine]-2-one] | 10 to 100 nM |  |
| Cc1oc2ncnc(NC3(C)CC3)c2c1C(=O)N1CCC2(C=Cc3ccccc32)CC1 [Example 387, 6-Methyl-N-(1-methylcyclopropyl)-5-({spiro[indene-1,4′-piperidine]-1′-yl}carbonyl)furo[2,3-d]pyrimidin-4-amine] |  | >8 |

| SMILES | IC50 | PDE1b (pIC50) |
| --- | --- | --- |
| Cc1oc2ncnc(NC3(C)CC3)c2c1C(=O)N1CCC2(CC1)SCc1ccccc12 [Example 388, 6-Methyl-N-(1-methylcyclopropyl)-5-(f{3H-spiro[2-benzothiophene-1,4′-piperidine]-1′-yl}carbonyl)furo[2,3-d]pyrimidin-4-amine] |  | >8 |
| Cc1oc2ncnc(NC3(C)CC3)c2c1C(=O)N1CCC(c2cccc(F)c2)C1 (stereo not drawn) [Example 389, 5-[3-(3-Fluorophenyl)pyrrolidine-1-carbonyl]-6-methyl-N-(1-methylcyclopropyl)furo[2,3-d]pyrimidin-4-amine] |  | >8 |
| Cc1ccnc(C2CCN(C(=O)c3c(C)oc4ncnc(NC5(C)CC5)c34)CC2)n1 [Example 390, 6-Methyl-N-(1-methylcyclopropyl)-5-[4-(4-methylpyrimidin-2-yl)piperidine-1-carbonyl]furo[2,3-d]pyrimidin-4-amine] |  | >8 |
| Cc1cnc(C2CCN(C(=O)c3c(C)oc4ncnc(NC5(C)CC5)c34)CC2)nc1C [Example 391, 5-[4-(4,5-Dimethylpyrimidin-2-yl)piperidine-1-carbonyl]-6-methyl-N-(1-methylcyclopropyl)furo[2,3-d]pyrimidin-4-amine] | 10 to 100 nM |  |
| Cc1oc2ncnc(NC3(C)CC3)c2c1C(=O)N1CCC2(C1)C(=O)Nc1ccccc12 (stereo not drawn) [Example 392, 1′-{6-Methyl-4-[(1-methylcyclopropyl)amino]furo[2,3-d]pyrimidine-5-carbonyl}-1,2-dihydrospiro[indole-3,3′-pyrrolidine]-2-one] | 10 to 100 nM |  |
| Cc1cnc(C2CCN(C(=O)c3c(C)oc4ncnc(NC5(C)CC5)c34)CC2)cn1 [Example 393, 6-Methyl-N-(1-methylcyclopropyl)-5-[4-(5-methylpyrazin-2-yl)piperidine-1-carbonyl]furo[2,3-d]pyrimidin-4-amine] | 10 to 100 nM |  |
| COc1ncc(C2CCN(C(=O)c3c(C)oc4ncnc(NC5(C)CC5)c34)CC2)cn1 [Example 394, 5-[4-(2-Methoxypyrimidin-5-yl)piperidine-1-carbonyl]-6-methyl-N-(1-methylcyclopropyl)furo[2,3-d]pyrimidin-4-amine] | 10 to 100 nM |  |
| Cc1cccc(C2CCN(C(=O)c3c(C)oc4ncnc(NC5(C)CC5)c34)C2)c1 (stereo not drawn) [Example 395, 6-Methyl-N-(1-methylcyclopropyl)-5-[3-(3-methylphenyl)pyrrolidine-1-carbonyl]furo[2,3-d]pyrimidin-4-amine] |  | >8 |
| Cc1oc2ncnc(NC3(C)CC3)c2c1C(=O)N1CCC(c2cccc(C(F)(F)F)c2)C1 (stereo not drawn) [Example 396, 6-Methyl-N-(1-methylcyclopropyl)-5-{3-[3-(trifluoromethyl)phenyl]pyrrolidine-1-carbonyl}furo[2,3-d]pyrimidin-4-amine] |  | >8 |
| Cc1cc(C)cc(C2CCN(C(=O)c3c(C)oc4ncnc(NC5(C)CC5)c34)C2)c1 (stereo not drawn) [Example 397, 5-[3-(3,5-Dimethylphenyl)pyrrolidine-1-carbonyl]-6-methyl-N-(1-methylcyclopropyl)furo[2,3-d]pyrimidin-4-amine] |  | >8 |
| Cc1oc2ncnc(NC3(C)CC3)c2c1C(=O)N1CCC(Oc2cccc(F)c2)C1 (stereo not drawn) [Example 398, 5-[3-(3-Fluorophenoxy)pyrrolidine-1-carbonyl]-6-methyl-N-(1-methylcyclopropyl)furo[2,3-d]pyrimidin-4-amine] |  | >8 |
| Cc1oc2ncnc(NC3(C)CC3)c2c1C(=O)N1CCC(Oc2ccc(F)cc2)C1 (stereo not drawn) [Example 399, 5-[3-(4-Fluorophenoxy)pyrrolidine-1-carbonyl]-6-methyl-N-(1-methylcyclopropyl)furo[2,3-d]pyrimidin-4-amine] | 10 to 100 nM |  |
| Cc1oc2ncnc(NC3(C)CC3)c2c1C(=O)NC(C)C1CC1 (stereo not drawn) [Example 400, N-(1-Cyclopropylethyl)-6-methyl-4-[(1-methylcyclopropyl)amino]furo[2,3-d]pyrimidine-5-carboxamide] | 10 to 100 nM |  |
| CCC(NC(=O)c1c(C)oc2ncnc(NC3(C)CC3)c12)C1CC1 (stereo not drawn) [Example 401, N-(1-Cyclopropylpropyl)-6-methyl-4-[(1-methylcyclopropyl)amino]furo[2,3-d]pyrimidine-5-carboxamide] | 10 to 100 nM |  |
| Cc1oc2ncnc(NC3(C)CC3)c2c1C(=O)NC(C)C1(C)CC1 (stereo not drawn) [Example 402, 6-Methyl-4-[(1-methylcyclopropyl)amino]-N-[1-(1-methylcyclopropyl)ethyl]furo[2,3-d]pyrimidine-5-carboxamide] | 10 to 100 nM |  |
| Cc1oc2ncnc(NC3(C)CC3)c2c1C(=O)N1CC2CC(C1)c1ccccc12 [Example 403, 5-{10-Azatricyclo[6.3.1.0^2,7]dodeca-2,4,6-triene-10-carbonyl}-6-methyl-N-(1-methylcyclopropyl)furo[2,3-d]pyrimidin-4-amine] | 100 to 1000 nM |  |
